Experimental data published in US12180207B2 (ARRAY BIOPHARMA INC., priority 2018, dated 2024).

Legend:
dephosphorylated FGFR2 = dephosphorylated FGFR2 (Homo sapiens (Human), UniProt P21802); experiment: FGFR enzyme binding assay (HTRF tracer displacement), FGFR2; conditions: 5 nM dephosphorylated FGFR2, average of multiple determinations if made
Outline: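 Compounds were tested for displacement of a tracer from human FGFR kinase in a time-resolved FRET binding format. After 60 minutes at 22° C, signal was read at two wavelengths and converted to percent of control, normalised between untreated wells and 1 μM reference inhibitor.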

[1] = target: HEK-293 cells transfected with dox-inducible human wild type FGFR3 (Homo sapiens (Human), UniProt P22607); experiment: FGFR3 pERK cell assay; type: cell-based; conditions: HEK-293 dox-inducible FGFR3, 1 hour compound, 100 ng/ml FGF-acidic; maximum concentration 5 μM
HEK-293 cells transfected with dox-inducible human wild type FGFR3, sequence (P22607 23-806): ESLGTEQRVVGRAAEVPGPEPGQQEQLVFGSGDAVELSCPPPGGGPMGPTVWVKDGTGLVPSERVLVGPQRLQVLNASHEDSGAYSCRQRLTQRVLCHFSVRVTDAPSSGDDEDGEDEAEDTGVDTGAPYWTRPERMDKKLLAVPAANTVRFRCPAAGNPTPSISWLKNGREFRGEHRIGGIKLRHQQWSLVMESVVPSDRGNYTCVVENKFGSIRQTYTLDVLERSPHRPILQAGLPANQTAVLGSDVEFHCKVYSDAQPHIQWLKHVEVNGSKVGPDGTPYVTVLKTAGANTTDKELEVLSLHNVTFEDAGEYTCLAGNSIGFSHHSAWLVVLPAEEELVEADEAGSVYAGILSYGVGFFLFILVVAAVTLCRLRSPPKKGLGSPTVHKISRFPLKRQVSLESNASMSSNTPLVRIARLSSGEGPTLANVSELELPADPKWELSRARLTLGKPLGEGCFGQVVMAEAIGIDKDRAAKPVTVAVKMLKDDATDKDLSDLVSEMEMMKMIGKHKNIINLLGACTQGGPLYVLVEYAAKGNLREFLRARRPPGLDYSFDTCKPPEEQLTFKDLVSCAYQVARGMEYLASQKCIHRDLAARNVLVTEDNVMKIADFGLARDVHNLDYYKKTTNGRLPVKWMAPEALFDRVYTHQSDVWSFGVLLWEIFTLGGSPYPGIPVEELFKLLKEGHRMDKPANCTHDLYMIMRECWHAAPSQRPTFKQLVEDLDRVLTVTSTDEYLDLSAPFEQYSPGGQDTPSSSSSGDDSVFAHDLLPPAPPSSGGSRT
Outline: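 Doxycycline-induced cells preincubated 1 h at 37 °C with compound (1:3 dilutions, top 5 μM final), then stimulated 5 min with 100 ng/ml FGF-acidic. Lysate phospho-ERK1/2 measured by MSD sandwich assay; IC50 at 50 POC from 4-parameter fit, normalised to no-compound and control-compound wells.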

[2] = target: HEK-293 cells transfected with dox-inducible human wild type FGFR2 (Homo sapiens (Human), UniProt P21802); experiment: FGFR2 pFGFR cell assay (ELISA); type: cell-based; conditions: HEK-293 dox-inducible FGFR2, 1 hour compound, 30 ng/ml FGF-acidic
HEK-293 cells transfected with dox-inducible human wild type FGFR2, sequence (P21802 22-821): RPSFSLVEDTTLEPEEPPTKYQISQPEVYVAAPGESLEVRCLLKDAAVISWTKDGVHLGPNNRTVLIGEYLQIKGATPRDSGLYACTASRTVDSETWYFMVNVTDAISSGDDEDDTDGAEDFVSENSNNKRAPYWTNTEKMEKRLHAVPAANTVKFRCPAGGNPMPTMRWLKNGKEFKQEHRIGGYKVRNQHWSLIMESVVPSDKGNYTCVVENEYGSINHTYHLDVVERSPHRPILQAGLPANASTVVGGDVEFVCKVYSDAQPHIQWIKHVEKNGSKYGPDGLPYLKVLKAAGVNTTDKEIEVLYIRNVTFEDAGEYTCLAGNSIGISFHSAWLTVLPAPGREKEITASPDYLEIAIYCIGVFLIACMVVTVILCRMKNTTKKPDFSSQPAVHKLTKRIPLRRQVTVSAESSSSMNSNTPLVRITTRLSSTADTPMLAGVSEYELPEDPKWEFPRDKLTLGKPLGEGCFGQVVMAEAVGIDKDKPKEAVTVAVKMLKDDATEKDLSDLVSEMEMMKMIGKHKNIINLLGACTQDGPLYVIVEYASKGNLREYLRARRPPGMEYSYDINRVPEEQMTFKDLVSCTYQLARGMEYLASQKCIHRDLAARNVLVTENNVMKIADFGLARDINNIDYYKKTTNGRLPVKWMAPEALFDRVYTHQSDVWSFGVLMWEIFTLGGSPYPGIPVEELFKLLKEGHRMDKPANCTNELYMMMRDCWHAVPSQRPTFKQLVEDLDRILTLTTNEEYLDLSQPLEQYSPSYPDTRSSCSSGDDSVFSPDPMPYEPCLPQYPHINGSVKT
Outline: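 Doxycycline-induced (1 μg/ml) cells preincubated with compound (1:3 serial dilutions, top final 5 μM) for 1 h at 37 °C, then stimulated with 30 ng/ml FGF-acidic for 5 min. Lysates assayed by ELISA capturing total FGFR2 and detecting phosphotyrosine (OD 450 nm). POC relative to no-compound and control-compound wells; IC50 from 4-parameter logistic fit.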

[3] = target: HEK-293 cells transfected with dox-inducible human wild type FGFR1 (Homo sapiens (Human), UniProt P11362); experiment: FGFR1 pFGFR cell assay (ELISA); type: cell-based; conditions: HEK-293 dox-inducible FGFR1, 1 hour compound
HEK-293 cells transfected with dox-inducible human wild type FGFR1, sequence (P11362 22-822): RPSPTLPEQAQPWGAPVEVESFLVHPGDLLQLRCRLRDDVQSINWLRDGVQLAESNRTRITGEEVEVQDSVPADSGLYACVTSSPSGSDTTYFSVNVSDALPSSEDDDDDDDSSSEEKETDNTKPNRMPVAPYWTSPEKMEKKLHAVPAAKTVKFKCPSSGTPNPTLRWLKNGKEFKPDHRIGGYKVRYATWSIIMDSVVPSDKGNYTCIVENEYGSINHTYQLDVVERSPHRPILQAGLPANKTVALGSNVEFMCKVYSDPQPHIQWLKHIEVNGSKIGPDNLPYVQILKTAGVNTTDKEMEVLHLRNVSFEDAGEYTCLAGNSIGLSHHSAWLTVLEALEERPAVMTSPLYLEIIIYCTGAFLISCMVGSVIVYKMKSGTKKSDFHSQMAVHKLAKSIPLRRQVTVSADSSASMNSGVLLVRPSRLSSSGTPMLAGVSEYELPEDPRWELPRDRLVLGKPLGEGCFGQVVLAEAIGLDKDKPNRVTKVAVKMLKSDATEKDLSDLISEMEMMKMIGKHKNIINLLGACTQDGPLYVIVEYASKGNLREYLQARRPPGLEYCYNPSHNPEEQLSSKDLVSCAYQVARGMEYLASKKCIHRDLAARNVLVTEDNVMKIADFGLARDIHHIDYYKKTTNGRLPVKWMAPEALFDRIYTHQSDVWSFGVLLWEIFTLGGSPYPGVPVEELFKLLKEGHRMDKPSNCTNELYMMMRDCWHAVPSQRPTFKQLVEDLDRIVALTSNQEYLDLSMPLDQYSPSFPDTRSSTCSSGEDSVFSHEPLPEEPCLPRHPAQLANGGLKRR
Procedure: FGFR1 pFGFR Cell Assay: • HEK-293 cells transfected with dox-inducible human wild type FGFR1 (SEQ ID NO: 1) were plated in a collagen or poly-D-lysine coated 96 well flat bottom plates at 4×10^5 cells/well in complete DMEM medium containing 10% FBS and 1 μg/ml doxycycline and allowed to attach for 24 h at 37° C., 5% CO2. Cells were treated with compound using 1:3 serial dilutions with a maximum final concentration of 5 μM. Compound was incubated on cells for 1 hour at 37° C., 5% CO2. Medium was removed, and cells were lysed with lysis buffer containing phosphatase and protease inhibitors. Phospho FGFR1 was measured by ELISA (R&D Systems cat. no. DYC5079 or Cell Signaling Technology cat. no. 12909). The ELISA captures total FGFR1 and detects total phospho tyrosine. Optical density was measured for each well using a Versamax reader at a wavelength of 450 nm. 100 POC was determined using no test compounds and 0 POC was determined using a control compound. The POC values were fit to a 4-parameter logistic curve as a function of the concentration of the compound, and the IC50 value is the point where the curve crosses 50 POC.

dephosphorylated FGFR2, sequence (P21802 22-821): as the sequence (P21802 22-821) above

**Q.** Which results are given for `C=CC(=O)N1CC(CN2CCC(n3ncc(-c4cc(OC)c5c(C#N)cnn5c4)c3C)CC2)C1` [Example 89, 6-(1-(1-((1-acryloylazetidin-3-yl)methyl)piperidin-4-yl)-5-methyl-1H-pyrazol-4-yl)-4-methoxypyrazolo[1,5-a]pyridine-3-carbonitrile]?
**A.** IC50 (dephosphorylated FGFR2): 0.053 µM; IC50 [1]: 0.022 µM; IC50 [2]: 0.096 µM

**Q.** Which IC50 (dephosphorylated FGFR2) does the source give for `C=CC(=O)N1CC(C)(CN2CCC(n3ncc(-c4cc(OC)c5c(C#N)cnn5c4)c3C)CC2)C1` [Example 90, 6-(1-(1-((1-acryloyl-3-methylazetidin-3-yl)methyl)piperidin-4-yl)-5-methyl-1H-pyrazol-4-yl)-4-methoxypyrazolo[1,5-a]pyridine-3-carbonitrile] here?
**A.** 0.054 µM

**Q.** What about the IC50 [1] of the same compound?
**A.** 0.043 µM

**Q.** What about the IC50 [2] of the same compound?
**A.** 0.109 µM

**Q.** Which IC50 (dephosphorylated FGFR2) does the source give for `C=CC(=O)N1CC(CN2CCC(n3ncc(-c4cc(OC)c5c(C#N)cnn5c4)c3C)CC2)(OC)C1` [Example 91, 6-(1-(1-((1-acryloyl-3-methoxyazetidin-3-yl)methyl)piperidin-4-yl)-5-methyl-1H-pyrazol-4-yl)-4-methoxypyrazolo[1,5-a]pyridine-3-carbonitrile] here?
**A.** 0.019 µM

**Q.** What about the IC50 [1] of the same compound?
**A.** 0.015 µM

**Q.** And the IC50 [2]?
**A.** 0.108 µM

**Q.** With `C=CC(=O)Nc1ccc(C(=O)N2CCC(n3cc(-c4cc(OC)c5c(C#N)cnn5c4)cn3)CC2)cc1` [Example 177, N-(4-(4-(4-(3-cyano-4-methoxypyrazolo[1,5-a]pyridin-6-yl)-1H-pyrazol-1-yl)piperidine-1-carbonyl)phenyl)acrylamide] as the compound, how does the IC50 [3] read?
**A.** 0.123 µM
